Results reported in article PMC8277129, “Bioconcentration of Several Series of Cationic Surfactants in Rainbow Trout” (Environmental Science & Technology, 2021).
Values joined by “and” are separate entries in the source; they are usually repeats but may differ in a detail not shown here. Equal entries are not always repeated. Where two headings read alike, the source gives them in different places.

Experiments:
[1] = test system: juvenile rainbow trout (Oncorhynchus mykiss); test: Bioconcentration (BCF) experiment based on OECD 305, aqueous exposure to surfactant mixtures; format: in vivo; conditions: for uptake rate constant (kU): 14 d exposure, 28 d depuration; for uptake rate constant (kU) / BCF (kU/kT) / measured total elimination rate constant (kT): whole fish
Procedure: (§1) Juvenile rainbow trout were purchased from EM lax in Västervik, Sweden, and held in the aquaria facility for one month prior to starting the experiment on August 28, 2018. Ethical approval for the experiments was obtained from Stockholm’s djurförsöksetiska nämnd (decision 9967–2017). The experiment was conducted in six 350 L fiberglass aquaria with a water renewal rate of 1.5 L min^–1 corresponding to a turnover time of […]. The water temperature and the air temperature in the aquaria room were 10 °C. The lighting was dim and programmed on a 12 h light/12 h dark cycle.
(§2) Three BCF experiments were conducted, one each for MIX1 and MIX2 at pH ∼7.6 (denoted MIX1 and MIX2 in the following), and one for MIX1 at pH ∼6.2 (MIX1pH). Each experiment consisted of a 14 d exposure phase and a 28 d depuration phase. There were also two control aquaria where unexposed fish were kept, one at pH 7.6 and one at pH 6.2. For the pH 6.2 aquaria, a 20% v:v formic acid solution was pumped into a premixing basin where it was mixed with the inflowing water before entering the aquarium. pH sensors monitored pH in the premixing basin and the aquarium. The pH for the MIX1 and MIX2 experiments was governed by the pH of the water supply. Water samples were collected at 8 time points during each experiment for the determination of pH and alkalinity. Water samples were collected daily during the exposure phase for determination of total organic carbon (TOC), which was measured with NDIR detection after acidification, purging and high-temperature catalytic combustion (Shimadzu TOC-L).
(§3) For the exposure phase, a methanol solution of the test chemical mixture was infused continuously at 4.0 μL min^–1 into the water inflow of the aquarium using a syringe pump. The target concentrations of the chemicals in water ranged from 2.5 to 100 μg L^–1 (Table 1). They were selected to be as low as possible to minimize the risk of toxic effects while still being high enough to enable collection of high-quality data, building on the results of the tissue distribution experiment.[32] The syringe pump was started in an aquarium containing no fish. After 16 h to allow the concentrations to stabilize, ∼80 rainbow trout were transferred to the aquarium. Over the following 14 d water samples were collected and fish were sacrificed according to the schedule in Table S5. The remaining fish were then transferred to a second aquarium that received water without chemical addition. Over the following 28 d further water samples were collected and fish were sacrificed (Table S5).
(§4) At each fish sampling, 4–6 fish were sacrificed. Fish were also sampled periodically from the control aquaria. Following stunning and severance of the spinal cord, the fish were placed in a polyethylene bag, weighed, and immediately frozen at −20 °C. The median fish weight at sacrifice was 10.94 g, with a 25th and 75th percentile of 8.43 and 13.58 g, respectively.
(§5) Three fish from each time point were prioritized for analysis based on proximity to the median fish weight. Each fish was semithawed, cut into 3–4 pieces, and homogenized with an Ultra-Turrax device. 150 mg of the homogenate was transferred to a preweighed 13 mL polypropylene tube, centrifuged to a pellet, and weighed. 50 μL of methanol was added and the prepared aliquot was frozen. For extraction internal standard solution (isotope labeled standards of Q10 (D21), Q14 (D29), and P16 (D33)), 3 mL of methanol and 3 steel balls (3.2 mm diameter) were added to the prepared aliquot. This mixture was mixed in a bullet blender for 1 min, and then placed in an ultrasound bath at 50 °C for 60 min. Following centrifugation, the supernatant was decanted and the extraction was repeated. The extracts were combined and a portion corresponding to 25–50 mg homogenate was cleaned up on a weak cationic exchange SPE column (WCX, 60 mg) as described elsewhere.[32] […]

gills of rainbow trout = test: Mechanistic one-box mass balance model of gill uptake and elimination; conditions: for predicted gill elimination rate constant eq 1 (k2): from measured kU and modeled αW, αB, DFW
From the text: To gain more mechanistic insight into the results, we formulated a simple one-box mass balance model of chemical bioconcentration in fish that considered diffusive uptake and elimination across the gills as well as biotransformation.[33] The flow of water across the gills and the flow of blood through the gills were modeled as perfusion limited resistances that constrain gill uptake and elimination. […] Consequently, these resistances are unknowns. Ion trapping effects caused by differences in pH between water at the gill surface and blood in the gills are considered, drawing on previous work on the uptake and elimination of ionizable organic chemicals across the gills of rainbow trout.[22],[23] Partitioning of the chemical from the dissolved phase into blood and into whole fish was calculated as the product of the membrane lipid–water distribution ratio (DMLW,T, including partitioning of both the neutral and the charged forms) and the fraction of membrane lipid in blood and whole fish. A detailed description of the model is provided in the SI (Text S3).
The contribution of the water perfusion and blood perfusion resistances were compared with the overall resistance for transport across the gills from water to blood (RW→B), which was calculated from the measured kU according to equation S4.3. […] For all of the other chemicals the blood resistance is insignificant compared to the overall resistance.
The rate constant for elimination across the gills, k2, can be defined as follows: [drawing 1] 1 where αB and αW are the neutral fractions of the chemical in the blood and in the water at the gill surface, respectively, and DFW is the fish-water distribution ratio of the chemical at the pH of blood (8.1) (see Text S3). Using the measured kU and the values of αW, αB, and DFW estimated for the model, k2 was calculated (Table 2).

rainbow trout [2] = test: Semiquantitative screening of demethylation metabolites in exposed fish; format: in vivo; conditions: last time point of the exposure phase
Procedure: Semiquantitative screening of possible demethylation metabolites was conducted in the fish collected at the last time point of the exposure phase. […] Demethylation of T10 to form S10 was reported in an in vitro S9 assay, and it was proposed that this is an important elimination mechanism for tertiary amines in fish.[27] There is in vitro evidence that demethylation of secondary alkylamines also occurs, which will be reported elsewhere.[37]

[3] = design: method as in Perrin 1965, SRC, REACH, Perrin 1972, Hall 1957; conditions: selected per amine type, weighted from simulated and experimental analogue data; ref Perrin 1965, SRC, REACH, Perrin 1972, Hall 1957; cited from earlier work
[4] = ref Timmer and Droge (2017); cited from earlier work
[5] = Bioconcentration (BCF) experiment based on OECD 305, aqueous exposure to surfactant mixtures; format: in vivo, Oncorhynchus mykiss; conditions: whole fish, read-out: measured total elimination rate constant (kT) (converted)
Procedure: as §1, §2, §3, §4, §5

[6] = Membrane-water partition coefficient of the charged form (DMLW,C); format: physicochemical; conditions: extrapolated from Timmer and Droge (2017)
Procedure: Table S3: Test chemical properties
Abbr. pKa$ Log DOC§ Log DMLW,C# SMILES
$ pKa values derived/reported for different alkylamine type analogues. The selected value is expected to be independent of chain length for all longer chain homologues, using a weighted value obtained from the different sources with more focus on experimental data:
Algorithm / simulated data Experimental reference data (25 °C)
Chem ACD/ COSMO- selected
(https://echa.europa.eu/registration-dossier/-

rainbow trout [7] = test system: rainbow trout; design: method as in PMID 32062967; conditions: after the 7 d exposure; cited from earlier work

Compound	uptake rate constant (kU) ([1]; pH 7.6 (MIX1, MIX2), 10 °C)	BCF (kU/kT) ([1]; pH 7.6 (MIX1, MIX2))	measured total elimination rate constant (kT) ([1]; pH 7.6 (MIX1, MIX2))	k2/kT (gills of rainbow trout; pH 7.6 (MIX1, MIX2))	predicted gill elimination rate constant eq 1 (k2) (gills of rainbow trout; pH 7.6 (MIX1, MIX2))	demethylation metabolites observed in fish (rainbow trout [2])	pKa used (selected value) [3]	Log DMLW,C (membrane-water partition coefficient of the charged form) [4]	k el ([5]; pH 7.6 (MIX1, MIX2))	Log DMLW,C (membrane-water partition coefficient of the charged form) [6]	fraction in gills and skin/mucus (rainbow trout [7])	factor by which BCF is lower at pH 6.2 than at pH 7.6 ([1]; MIX1 vs MIX1pH)	factor by which kT is greater at pH 6.2 than at pH 7.6 ([1]; MIX1 vs MIX1pH)	uptake rate constant (kU) ([1]; pH 6.2 (MIX1pH))	BCF (kU/kT) ([1]; pH 6.2 (MIX1pH))	k2/kT (gills of rainbow trout; pH 6.2 (MIX1pH))	predicted gill elimination rate constant eq 1 (k2) (gills of rainbow trout; pH 6.2 (MIX1pH))	modeled water resistance as share of the measured uptake resistance (gills of rainbow trout; pH 7.6)	also measured
CCCCCCCCCN(C)C [T9, N,N-dimethylnonylamine]	2.0 L kg^–1 h^–1	35 L kg^–1	0.059 h^–1	4.6	0.27 h^–1	trace levels of the corresponding primary amines	C13N(CH3)2 (10.0)	3.07	–	–	–	–	–	–	–	–	–	–	factor by which k2 exceeded kT (gills of rainbow trout; pH 7.6): ~5
CCCCCCCCCCCCCN [P13, Tridecylamine]	4.8 L kg^–1 h^–1	1390 L kg^–1	–	0.17	0.0006 h^–1	–	C13NH2 (10.6)	–	9.44e-07 s⁻¹	6.16	–	–	–	–	–	–	–	–	factor by which k2 was less than kT (gills of rainbow trout): ~10
CCCCCCCCCCCCCCCCNC [S16, N-methylhexadecylamine]	22 L kg^–1 h^–1	8200 L kg^–1	0.0027 h^–1	0.03	0.00007 h^–1	P16 was not detected	C16N(CH3)H (10.8)	–	–	7.71	71%	–	–	–	–	–	–	–	–
CCCCCCCCCCCCNC [S12, N-methyldodecylamine]	5.5 L kg^–1 h^–1	840 L kg^–1	0.0066 h^–1	0.6	0.004 h^–1	P12, a metabolite of S12, was also observed	C12N(CH3)H (10.8)	5.39	–	–	–	–	–	–	–	–	–	–	–
CCCCCCCCCCCCCN(C)C [T13, N,N-dimethyltridecylamine]	15.9 L kg^–1 h^–1	3200 L kg^–1	0.0049 h^–1	1.9	0.010 h^–1	trace levels of the corresponding primary amines	C13N(CH3)2 (10.0)	–	–	5.88	–	9.5	3 and 2.8	4.7 L kg^–1 h^–1	340 L kg^–1	2.8	0.039 h^–1	exceeds 50%	measured total elimination rate constant (kT) ([1]; pH 6.2 (MIX1pH)): 0.0139 h^–1; BCF compared with REACH B (2000) and vB (5000) thresholds ([1]; pH 7.6): greater than 2000 L kg ww^–1
CCCCCCCCCCCCCCCCN [P16, Hexadecylamine]	15.3 L kg^–1 h^–1	6100 L kg^–1	–	0.01	0.00003 h^–1	–	C16NH2 (10.6)	–	6.94e-07 s⁻¹	7.90	73%	2	no pH dependency for kT	7.8 L kg^–1 h^–1	3000 L kg^–1	0.09	0.00023 h^–1	exceeds 50%	k el ([5]; pH 6.2 (MIX1pH)): 7.22e-07 s⁻¹; factor by which kU is lower at pH 6.2 than at pH 7.6 ([1]; MIX1 vs MIX1pH): 2; pH dependency of k2 (factor between pH 7.6 and pH 6.2) (gills of rainbow trout; MIX1 vs MIX1pH): 7
